Measured values reported in US20240165042A1, “COMPOSITION FOR CONTROLLED RELEASE OF PHYSIOLOGICALLY ACTIVE SUBSTANCES AND PROCESS FOR ITS PREPARATION” (BALCHEM ITALIA S.R.L., priority 2017, published 2024).

Key:
Assay type in all cases: in vitro ADME
[1] = Degree of ruminal by-pass in vitro (pharmaceutical dissolver / Daisy II ANKOM artificial rumen, 39° C., 8 hours, ruminal pH about 6.8)
Procedure: In the context of the present invention, the term “ruminal by-pass” indicates the percentage amount by weight of substance reaching the animal post-ruminal area, namely the stomach and the intestine, with respect to the total amount by weight of the orally administered substance.
The experimental conditions of use were 39° C., 15 rpm, 8 hours presence in the solution with “ruminal” pH of about 6.8. • Daisy^II ANKOM: commercially available laboratory artificial rumen, for determining the degree of ruminal bypass. The experimental conditions of use were 39° C., 8 hours presence in ruminal conditions, buffer solution at “ruminal” pH with insertion of “ruminal inoculum” and re-creation of ruminal anaerobiosis according to a university procedure known to those skilled in the art. […] Pharmaceutical dissolver for determining the degree of post-ruminal digestibility. The experimental conditions of use followed the procedure known to experts in the field as “Boisen Test” and, in particular, they were: • 39° C., 30 rpm, 2 h, buffer solution with “gastric” pH (2.0)+pepsin inoculum. • 39 °C, 30 rpm, 4 h, buffer solution with “intestinal” pH (6.8)+pancreatine inoculum. • 39° C., 30 rpm, 18 h, buffer solution with “intestinal” pH (6.8)+lipase and bile extract inoculum.
(§1) Then the microgranules were subjected to an evaluation of the degree of ruminal by-pass, post-ruminal digestibility and total bioavailability using the Boisen method.

[2] = Post-ruminal digestibility in vitro (pharmaceutical dissolver, Boisen Test: gastric pH 2.0 + pepsin, intestinal pH 6.8 + pancreatine, then lipase and bile extract)
Procedure: (§2) The experimental conditions of use were 39° C., 15 rpm, 8 hours presence in the solution with “ruminal” pH of about 6.8. • Daisy^II ANKOM: commercially available laboratory artificial rumen, for determining the degree of ruminal bypass. The experimental conditions of use were 39° C., 8 hours presence in ruminal conditions, buffer solution at “ruminal” pH with insertion of “ruminal inoculum” and re-creation of ruminal anaerobiosis according to a university procedure known to those skilled in the art. The pH normally tested in the quality control phase is 6.8. Pharmaceutical dissolver for determining the degree of post-ruminal digestibility. The experimental conditions of use followed the procedure known to experts in the field as “Boisen Test” and, in particular, they were: • 39° C., 30 rpm, 2 h, buffer solution with “gastric” pH (2.0)+pepsin inoculum. • 39 °C, 30 rpm, 4 h, buffer solution with “intestinal” pH (6.8)+pancreatine inoculum. • 39° C., 30 rpm, 18 h, buffer solution with “intestinal” pH (6.8)+lipase and bile extract inoculum.
as §1

[3] = Total bioavailability in vitro (combination of ruminal by-pass and post-ruminal digestibility)
Procedure: as §2, §1

[4] = theoretical administration of 100 g of choline chloride
[5] = theoretical administration of 200 g of product

## C[N+](C)(C)CCO.[Cl-] [Product A, choline chloride]
[1]; [4]
  Bypassed Choline Chloride: 0 g
  Choline Chloride lost in the rumen in 8 h: 101 g
[1]; [5]
  Bypassed Choline Chloride: 0 g
  Choline Chloride lost in the rumen in 8 h: 198 g
[2]; [4]
  Choline Chloride in faeces: 0 g
[2]; [5]
  Choline Chloride in faeces: 0 g
[3]; [4]
  Bioavailable Choline Chloride: 0 g
[3]; [5]
  Bioavailable Choline Chloride: 0 g
